From PubChem BioAssay AID192 (DTP/NCI, 2004)
Several values for one entry are separate records, joined by “and”; a condition that tells them apart may be missing. Equal values may be shown once. Toxic doses and inconclusive results are not listed.

System: BDF1 mice, B16 melanoma ip, median survival T/C
Test: NCI In Vivo Anticancer Drug Screen. Data for tumor model B16 Melanoma (intraperitoneal) in B6D2F1 (BDF1) mice
Conditions: endpoint: median survival time, higher = longer survival
Summary of the method: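 Transplantable tumor model; survival or tumor size measured; reported as T/C, treated over vehicle control.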

[1] = dose: 100.0 mg/kg/injection, schedule: Q01DX009 (ip), vehicle: Klucel (hydroxypropylcellulose) (HPC)
[2] = dose: 200.0 mg/kg/injection, schedule: Q01DX009 (ip), vehicle: Klucel (hydroxypropylcellulose) (HPC)
[3] = dose: 400.0 mg/kg/injection, schedule: Q01DX009 (ip), vehicle: Klucel (hydroxypropylcellulose) (HPC)
[4] = dose: 25.0 mg/kg/injection, schedule: Q01DX009 (ip), vehicle: Klucel (hydroxypropylcellulose) (HPC)
[5] = dose: 50.0 mg/kg/injection, schedule: Q01DX009 (ip), vehicle: Klucel (hydroxypropylcellulose) (HPC)
[6] = dose: 100.0 mg/kg/injection, schedule: Q01DX009 (ip), vehicle: saline with Tween-80
[7] = dose: 200.0 mg/kg/injection, schedule: Q01DX009 (ip), vehicle: saline with Tween-80
[8] = dose: 100.0 mg/kg/injection, schedule: Q04DX003 (ip), vehicle: saline with Tween-80

## CCCC1CC[N-]CC1.CCCC1CC[N-]CC1.CCCC1CC[N-]CC1.CCCC1CC[N-]CC1.[Cl][Rh][Cl]
dose: 0.37 mg/kg/injection, schedule: Q01DX009 (ip), vehicle: Klucel (hydroxypropylcellulose) (HPC)
  T/C: 104 % of control
dose: 0.75 mg/kg/injection, schedule: Q01DX009 (ip), vehicle: Klucel (hydroxypropylcellulose) (HPC)
  T/C: 102 % of control
dose: 1.5 mg/kg/injection, schedule: Q01DX009 (ip), vehicle: Klucel (hydroxypropylcellulose) (HPC)
  T/C: 100 % of control
dose: 1.56 mg/kg/injection, schedule: Q01DX009 (ip), vehicle: saline with Tween-80
  T/C: 109 % of control
dose: 3.13 mg/kg/injection, schedule: Q01DX009 (ip), vehicle: saline with Tween-80
  T/C: 116 % of control
dose: 6.25 mg/kg/injection, schedule: Q01DX009 (ip), vehicle: saline with Tween-80
  T/C: 98 % of control

## C(=N\C(/N=C/c1ccco1)c1ccco1)/c1ccco1
dose: 40.0 mg/kg/injection, schedule: Q01DX009 (ip), vehicle: Klucel (hydroxypropylcellulose) (HPC)
  T/C: 94 % of control
dose: 80.0 mg/kg/injection, schedule: Q01DX009 (ip), vehicle: Klucel (hydroxypropylcellulose) (HPC)
  T/C: 89 % of control
dose: 160.0 mg/kg/injection, schedule: Q01DX009 (ip), vehicle: Klucel (hydroxypropylcellulose) (HPC)
  T/C: 97 % of control
dose: 320.0 mg/kg/injection, schedule: Q01DX009 (ip), vehicle: Klucel (hydroxypropylcellulose) (HPC)
  T/C: 92 % of control

## CCCCCOc1ccc(C(=O)CC(=O)OCC)cc1
[1]
  T/C: 93 % of control
[2]
  T/C: 106 % of control
[3]
  T/C: 93 % of control

## CN(C)C(C#N)C(=O)c1ccccc1 (stereo not drawn)
[4]
  T/C: 104 % of control
[5]
  T/C: 97 % of control
[1]
  T/C: 97 % of control

## Cc1cccc(NS(=O)(=O)c2ccccc2)c1C
dose: 50.0 mg/kg/injection, schedule: Q01DX009 (ip), vehicle: saline with Tween-80
  T/C: 98 % of control
[1]
  T/C: 96 % of control
[6]
  T/C: 98 % of control
[7]
  T/C: 97 % of control
[3]
  T/C: 88 % of control

## ClC1(c2ccccc2)c2ccc(Br)cc2-c2cc(Br)ccc21
[6]
  T/C: 89 % of control
[7]
  T/C: 92 % of control

## NC(CC(=O)NC(=O)OCc1ccccc1)C(=O)O (stereo not drawn)
[6]
  T/C: 100 % of control
[7]
  T/C: 105 % of control
dose: 400.0 mg/kg/injection, schedule: Q01DX009 (ip), vehicle: saline with Tween-80
  T/C: 110 % of control

## CCC/C(=C\C(=O)O)CC
[1]
  T/C: 108 % of control
dose: 100.0 mg/kg/injection, schedule: Q04DX003 (ip), vehicle: Klucel (hydroxypropylcellulose) (HPC)
  T/C: 95 % of control
[2]
  T/C: 100 % of control
dose: 200.0 mg/kg/injection, schedule: Q04DX003 (ip), vehicle: Klucel (hydroxypropylcellulose) (HPC)
  T/C: 95 % of control
[3]
  T/C: 97 % of control

## Cc1ccc(SSc2ccc(C)cc2[N+](=O)[O-])c([N+](=O)[O-])c1
[4]
  T/C: 100 % of control
[5]
  T/C: 89 % of control
[1]
  T/C: 86 % of control and 93 % of control

## C=C(C)[C@@H]1CC[C@]2(CO)CC[C@]3(C)[C@H](CC[C@@H]4[C@@]5(C)CC[C@H](O)C(C)(C)[C@@H]5CC[C@]43C)[C@@H]12
[1]
  T/C: 99 % of control
[2]
  T/C: 97 % of control
[3]
  T/C: 95 % of control

## CC(Br)C1(c2cccc([N+](=O)[O-])c2)OCCO1 (stereo not drawn)
dose: 25.0 mg/kg/injection, schedule: Q04DX003 (ip), vehicle: Klucel (hydroxypropylcellulose) (HPC)
  T/C: 94 % of control
dose: 50.0 mg/kg/injection, schedule: Q04DX003 (ip), vehicle: Klucel (hydroxypropylcellulose) (HPC)
  T/C: 92 % of control

## Nc1nc([Se])c2ncn(C3OC(CO)C(O)C3O)c2n1 (stereo not drawn)
dose: 1.0 mg/kg/injection, schedule: Q01DX009 (ip), vehicle: saline
  T/C: 114 % of control
dose: 2.0 mg/kg/injection, schedule: Q01DX009 (ip), vehicle: saline
  T/C: 116 % of control and 117 % of control
dose: 4.0 mg/kg/injection, schedule: Q01DX009 (ip), vehicle: saline
  T/C: 114 % of control
dose: 8.0 mg/kg/injection, schedule: Q01DX009 (ip), vehicle: saline
  T/C: 116 % of control and 117 % of control
dose: 16.0 mg/kg/injection, schedule: Q01DX009 (ip), vehicle: saline
  T/C: 121 % of control

## O=NN(CCF)C(=O)NC1CCCCC1
dose: 7.5 mg/kg/injection, schedule: Q01DX001 (ip), vehicle: saline + alcohol
  T/C: 115 % of control
dose: 15.0 mg/kg/injection, schedule: Q01DX001 (ip), vehicle: saline + alcohol
  T/C: 106 % of control
dose: 30.0 mg/kg/injection, schedule: Q01DX001 (ip), vehicle: saline + alcohol
  T/C: 119 % of control
dose: 60.0 mg/kg/injection, schedule: Q01DX001 (ip), vehicle: saline + alcohol
  T/C: 171 % of control
dose: 120.0 mg/kg/injection, schedule: Q01DX001 (ip), vehicle: saline + alcohol
  T/C: 166 % of control

## Cc1ccc(NC(=O)c2ccccc2)cc1Cl
[1]
  T/C: 101 % of control
[2]
  T/C: 103 % of control
[3]
  T/C: 101 % of control

## Cc1cccc(C(=O)CC(O)(C(F)(F)F)C(F)(F)F)n1
[8]
  T/C: 110 % of control
dose: 200.0 mg/kg/injection, schedule: Q04DX003 (ip), vehicle: saline with Tween-80
  T/C: 100 % of control
dose: 400.0 mg/kg/injection, schedule: Q04DX003 (ip), vehicle: saline with Tween-80
  T/C: 100 % of control

## CC(C)C[C@H](O)C(=O)O
dose: 25.0 mg/kg/injection, schedule: Q01DX009 (ip), vehicle: saline
  T/C: 104 % of control
dose: 50.0 mg/kg/injection, schedule: Q01DX009 (ip), vehicle: saline
  T/C: 110 % of control

## CC(C)CCOC(=O)C(O)c1ccccc1 (stereo not drawn)
[1]
  T/C: 87 % of control
[2]
  T/C: 93 % of control
[3]
  T/C: 87 % of control

## COc1cc([C@@H]2c3cc4c(cc3[C@@H](OC3OC5COC(C)OC5C(O)C3O)[C@H]3COC(=O)[C@H]23)OCO4)cc(OC)c1O (stereo partly drawn)
dose: 1.73 mg/kg/injection, schedule: Q01DX009 (ip), vehicle: clinical formulation
  T/C: 206 % of control
dose: 2.0 mg/kg/injection, schedule: Q01DX009 (ip), vehicle: Klucel (hydroxypropylcellulose) (HPC)
  T/C: 150 % of control
dose: 2.88 mg/kg/injection, schedule: Q01DX009 (ip), vehicle: clinical formulation
  T/C: 240 % of control
dose: 4.0 mg/kg/injection, schedule: Q01DX009 (ip), vehicle: Klucel (hydroxypropylcellulose) (HPC)
  T/C: 111 % of control
dose: 4.8 mg/kg/injection, schedule: Q01DX009 (ip), vehicle: clinical formulation
  T/C: 240 % of control
dose: 5.0 mg/kg/injection, schedule: Q01DX009 (ip), vehicle: saline
  T/C: 252 % of control
dose: 5.0 mg/kg/injection, schedule: Q04DX003 (ip), vehicle: suspension in saline
  T/C: 202 % of control
dose: 8.0 mg/kg/injection, schedule: Q01DX009 (ip), vehicle: Klucel (hydroxypropylcellulose) (HPC)
  T/C: 276 % of control
dose: 8.0 mg/kg/injection, schedule: Q01DX009 (ip), vehicle: clinical formulation
  T/C: 259 % of control
dose: 8.0 mg/kg/injection, schedule: Q04DX003 (ip), vehicle: suspension in saline
  T/C: 180 % of control
dose: 10.0 mg/kg/injection, schedule: Q01DX009 (ip), vehicle: saline
  T/C: 285 % of control
dose: 10.0 mg/kg/injection, schedule: Q04DX003 (ip), vehicle: suspension in saline
  T/C: 208 % of control
dose: 13.3 mg/kg/injection, schedule: Q01DX009 (ip), vehicle: clinical formulation
  T/C: 53 % of control
dose: 16.0 mg/kg/injection, schedule: Q04DX003 (ip), vehicle: suspension in saline
  T/C: 207 % of control
dose: 20.0 mg/kg/injection, schedule: Q04DX003 (ip), vehicle: suspension in saline
  T/C: 236 % of control
dose: 32.0 mg/kg/injection, schedule: Q04DX003 (ip), vehicle: suspension in saline
  T/C: 85 % of control
dose: 40.0 mg/kg/injection, schedule: Q04DX003 (ip), vehicle: suspension in saline
  T/C: 241 % of control
dose: 64.0 mg/kg/injection, schedule: Q04DX003 (ip), vehicle: suspension in saline
  T/C: 63 % of control

## COc1ccc(-c2cc(=O)c3c(ccc4ccccc43)o2)cc1
[1]
  T/C: 94 % of control
[2]
  T/C: 100 % of control
[3]
  T/C: 102 % of control

## CCOC(=O)/C=C/C(=O)NCC(N)C(=O)O (stereo not drawn)
dose: 6.25 mg/kg/injection, schedule: Q01DX009 (ip), vehicle: distilled water + Tween-80
  T/C: 96 % of control
dose: 12.5 mg/kg/injection, schedule: Q01DX009 (ip), vehicle: distilled water + Tween-80
  T/C: 88 % of control
dose: 25.0 mg/kg/injection, schedule: Q01DX009 (ip), vehicle: distilled water + Tween-80
  T/C: 104 % of control
dose: 50.0 mg/kg/injection, schedule: Q01DX009 (ip), vehicle: distilled water + Tween-80
  T/C: 88 % of control
dose: 100.0 mg/kg/injection, schedule: Q01DX009 (ip), vehicle: distilled water + Tween-80
  T/C: 98 % of control

## CN(C)/N=C\c1ccccc1Cl
dose: 50.0 mg/kg/injection, schedule: Q04DX003 (ip), vehicle: saline with Tween-80
  T/C: 104 % of control
[8]
  T/C: 102 % of control
